Source: US20060178307A1, “Modulation of NMDA receptor currents via orexin receptor and/or CRF receptor” (priority 2005, published 2006)
Entries after “also recorded” stand apart in the source; their conditions may differ. Where no end group is shown, it is not given here.

Key:
[1] = test system: 10% ethanol consumption; assay: Voluntary ethanol consumption, limited-access two-bottle choice, icv infusion; format: in vivo, Long Evans rats; details: 5 μg ICV, n=14
Method: Agents in these in vivo studies were administered to either the lateral ventricle (icv) or ventral tegmental area (VTA) in rats by cannulae, which were implanted as follows. One week after the rats achieved baseline drinking and lever pressing levels in the 2-bottle choice and ethanol self-administration paradigms described below, they were anesthetized with 75 mg/kg pentobarbital sodium and placed in a stereotaxic frame. The head was shaved and scrubbed with an antiseptic solution of betadine/2% H2O2, followed by 2.5% topical xylocalne jelly. The skull was exposed and two to three holes were drilled for implantation of sterile miniature skull screws (⅛″, Small Parts, Inc.). […]
These experiments test the effects of the CRF system on voluntary ethanol consumption using a limited-access paradigm. […] Animal weights were measured daily in order to calculate the gram per kilogram intake. Ethanol preference (%) was calculated as the grams of ethanol consumed divided by the total fluid consumption (grams of ethanol+grams of water). The data was corrected for evaporation and spillage by subtracting the mean fluid loss measured in four drinking tubes placed on empty cages. […]
The effects of CRF (5 μg) and the CRF inhibitor CRF (6-33) (5 μg) on limited access (30 min) 10% ethanol drinking were measured using a limited-access two-bottle choice procedure.

[2] = test system: NMDAR-mediated currents in VTA dopamine cells; assay: CRF-related peptides on NMDAR-mediated currents at excitatory synapses onto VTA dopamine cells; format: cell-based; details: mammalian brain
[3] = test system: NMDAR eEPSCs; details: cited from earlier work

| Substance | 10% ethanol consumption ([1]; limited access, compared to CRF alone) | water consumption [1] | potentiation of NMDAR currents [2] | potentiation of NMDARs ([3]; 10 nM CRF, mice) | NMDAR eEPSCs, concentration dependent ([3]; mice (FIG. 13)) |
| --- | --- | --- | --- | --- | --- |
| CRF (6-33): indirect CRF receptor antagonist that acts by displacing CRF from CRF-BP (ISLDLTFHLLREVLEMARAEQLAQQAHS; Corticoliberin; UniProt P06850 159-186, looked up, fragment) | significantly reduced | no effect; also recorded: did not reduce |  |  |  |
| CRF: Corticotrophin-releasing factor, a 41 amino acid peptide; direct CRF receptor agonist (SEEPPISLDLTFHLLREVLEMARAEQLAQQAHSNRKLMEII; ends and bridges not checked; UniProt P06850 154-194, looked up) |  |  | increases | no potentiation | increased |
